Reference: US12516092B2, “Peptide ligands of the GDNF family receptor A-like (GFRAL) receptor” (THE TRUSTEES OF THE UNIVERSITY OF PENNSYLVANIA, priority 2019, dated 2026)
Non-standard residues stand in square brackets, D forms with d. Residues, ends and D or L forms follow the SMILES beside them. No end group written: not given here. Lys(N3) = [N-]=[N+]=NCCCC[C@H](N)C(=O)O

Assays:
[1] = in vitro PK study in rat microsomes; format: in vitro ADME
Protocol: FIG. 8 is a graph illustrating the results from in vitro PK study of GFRAL receptor antagonist in rat microsomes. […] Reaction velocity (V) was calculated to be 511 uL/1 mg. Intrinsic clearance (Cl-int) was determined to be 339 uL/min/mg protein.

human GFRAL receptor = biological target: T1, human GFRAL receptor (Homo sapiens, UniProt Q6UXV0); assay: Cy5-conjugate binding to human GFRAL receptor in vitro, tracked with anti-Cy5 antibody; conditions: Cy5-conjugate exposed to human GFRAL receptor in vitro
T1 sequence (Q6UXV0 19-394): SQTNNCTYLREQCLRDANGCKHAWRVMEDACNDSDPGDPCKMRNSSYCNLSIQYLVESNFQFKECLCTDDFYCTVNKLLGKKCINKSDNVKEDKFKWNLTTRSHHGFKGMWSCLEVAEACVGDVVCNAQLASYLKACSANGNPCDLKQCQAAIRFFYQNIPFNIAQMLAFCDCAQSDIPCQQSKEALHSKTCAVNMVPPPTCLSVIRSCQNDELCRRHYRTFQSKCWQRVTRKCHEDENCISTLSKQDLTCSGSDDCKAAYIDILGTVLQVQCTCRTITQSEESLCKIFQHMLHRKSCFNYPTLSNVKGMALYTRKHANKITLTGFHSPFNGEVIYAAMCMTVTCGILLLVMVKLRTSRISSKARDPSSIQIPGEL
Source text: A Cy5-conjugate of GFRAL receptor antagonist was synthesized and exposed to the human GFRAL receptor in vitro and tracked for binding using an anti-Cy5 antibody.

male rats = assay: Ejaculation studies in rats; format: in vivo, rat; conditions: video recorded for 3 h
Protocol: Rats were video recorded for 3 h and the number of spontaneous ejaculations were analyzed by an observer blinded to treatment groups. Without wishing to be bound by theory, GFANT01 may be an agonist of the GFRAL receptor.

rats [2] = assay: Nausea/malaise (illness-like behaviors) studies in rats; format: in vivo, rat; conditions: over the course of 24 hours
Protocol: (§1) Five potential ligands (GFANT01-GFANT05, SEQ. ID NOs: 1-5, wherein the K* in each peptide is Lysine(N3)) were synthesized. The effects of each of the novel ligands were tested for their ability to alter nausea in rats over the course of 24 hours. […] Animals were given either MIC-1 (30 pmol), the endogenous ligand of GFRAL that suppresses appetites, GFANT05 (300 pmol), or a combination of both and their food intake was monitored for up to 24 hrs (FIG. 5A). […] In addition, kaolin intake, a reliable measure of nausea in rats, was reduced in animals receiving GFANT05 compared to vehicle alone and that of a known nausea-inducing compound (MIC-1) (FIG. 5B). […] Analysis of emetic episodes were measured by an observer blinded to treatment groups.

rats [3] = assay: food intake study; format: in vivo, rat
Protocol: (§2) FIG. 5A is a graph of a food intake study performed to evaluate the efficacy of unconjugated GFANT05 peptide (TK*[…]; SEQ ID NO: 5, wherein K* is K azido) to reduce nausea.
as §1

rats [4] = assay: kaolin intake study; format: in vivo, rat; conditions: compared to vehicle alone and MIC-1
Protocol: as §2, §1

GFRAL receptor = assay: co-localization with the GFRAL receptor in the brainstem (image)
Source text: This technology provides a new route to treat cachexia and chemotherapy induced nausea/vomiting by uniquely blocking the GDF15-GFRAL signaling in the brainstem.

[5] = biological target: T2, recombinant human GFRα-like His-tag receptor (Homo sapiens, UniProt Q6UXV0); assay: ELISA binding assay of GDF15 to GFRAL receptor; conditions: GDF15 run at 100 ng/mL to 0.005 ng/mL; receptor 0.1 μg/mL on nickel coated plate
T2 construct: purchased R&D 9647-GR-050
T2 sequence (Q6UXV0 19-394): T1 sequence (Q6UXV0 19-394)
Protocol: To validate binding of the synthesized peptides to the GFRAL receptor, an ELISA assay was developed to determine the binding affinity of the peptides for their receptor. The primary antibody (Abcam ab206414) was diluted to 1 μg/mL. The secondary antibody was diluted by placing 5 μL into 10 mL assay buffer. GDF15 was run at concentrations of 100 ng/mL to 0.005 ng/mL. The recombinant human GFRα-like His-tag receptor (R&D 9647-GR-050) was added to the Pierce™ nickel coated plate (ThermoFisher Scientific 15442) at 0.1 μg/mL in a total volume of 100 μL.

CC[C@H](C)[C@H](NC(=O)[C@H](CC(C)C)NC(=O)[C@H](CCC(=O)O)NC(=O)[C@H](CCC(=O)O)NC(=O)[C@H](CCCCN=[N+]=[N-])NC(=O)[C@@H](N)[C@@H](C)O)C(=O)N[C@@H](Cc1c[nH]cn1)C(=O)N[C@@H](C)C(=O)N[C@@H](Cc1c[nH]cn1)C(=O)N[C@@H](C)C(=O)N[C@@H](CC(=O)O)C(=O)N1CCC[C@H]1C(=O)N[C@@H](CCSC)C(=O)N[C@H](C(=O)N[C@@H](CC(C)C)C(=O)N[C@H](C(=O)N[C@@H](CCC(N)=O)C(=O)N[C@@H](CCCCN)C(=O)N[C@H](C(=O)N[C@@H](CC(=O)O)C(=O)N[C@H](C(=O)NCC(=O)N[C@H](C(=O)N[C@@H](CO)C(=O)N[C@@H](CC(C)C)C(=O)N[C@@H](CCC(N)=O)C(=O)N[C@H](C(=O)N[C@@H](Cc1ccc(O)cc1)C(=O)N[C@@H](CC(=O)O)C(=O)O)[C@@H](C)O)C(C)C)[C@@H](C)O)[C@@H](C)O)[C@@H](C)CC)C(C)C [GFRAL receptor antagonist] (H-T[Lys(N3)]EELIHAHADPMVLIQKTDTGVSLQTYD-OH; N-terminus and C-terminus assumed)
Reaction velocity (V) [1]: 511 uL/1 mg
half-life [1]: 104 min
microsomal CLint ([1]; read-out: Intrinsic clearance (Cl-int)): 339 µL/min/mg

Cy5-conjugate of GFRAL receptor antagonist: Cy5-conjugate of GFRAL receptor antagonist, synthesized for tracking binding with an anti-Cy5 antibody (T[Lys(N3)]EELIHAHADPMVLIQKTDTGVSLQTYD; also: Cy5 conjugate, site not given here)
binding to the GFRAL receptor (human GFRAL receptor): confirming GFRAL receptor antagonist binding to the GFRAL receptor

GFANT01: engineered peptide EDDVSFQK*LDDNVRYHTLRK; may be an agonist of the GFRAL receptor (EDDVSFQ[Lys(N3)]LDDNVRYHTLRK; not fully specified; printed as EDDVSFQK*LDDNVRYHTLRK)
spontaneous ejaculation (male rats): result in spontaneous ejaculation

GFANT05: engineered peptide TK*EELIHAHADPMVLIQKTDTGVSLQTYD; GFRAL receptor antagonist (T[Lys(N3)]EELIHAHADPMVLIQKTDTGVSLQTYD)
effect on nausea/illness-like behaviors (rats [2]): significant effect
overall food consumption (rats [3]; GFANT05 (300 pmol) added to MIC-1 (30 pmol), compared with MIC-1): did not increase overall food consumption over MIC-1
food intake (rats [3]; GFANT05 (300 pmol) alone, 24 hrs post-administration, vs untreated control): ate the same amount of food as untreated control animals
kaolin intake (rats [4]): reduced
co-localization with the GFRAL receptor (GFRAL receptor): co-localizing with the GFRAL receptor in the brainstem

growth and differentiation factor 15 [GDF15]
KD [5]: 1.03 ng/mL
spontaneous ejaculation (male rats): the same effect
